Data taken from patent publication US20150065526A1, “OVERCOMING ACQUIRED RESISTANCE TO CHEMOTHERAPY TREATMENTS THROUGH SUPPRESSION OF STAT3” (EMORY UNIVERSITY, priority 2013, published 2015).

Experiments:
[1] = test system: PTPMeg2, pSTAT3, Bcl2, Bcl-XL, JAK2, c-Src in HCC827 cells; test: Western blot of HCC827 cells treated with erlotinib; format: cell-based, human
[2] = test system: Tu212 head and neck cancer xenografts; test: Tu212 head and neck cancer xenografts in mice; format: in vivo; conditions: for Xenograft tumor growth, Tu212: erlotinib 40 mg/kg/d, niclosamide 20 mg/kg/d, two weeks
Protocol: Each group included 8 mice. Tumor volume was measured once every 2 days. After 14 days, the mice were sacrificed and the tumors were removed and analyzed. Representative tumor pictures were taken. B, Active caspase 3 and Ki 67 were analyzed in tumor tissues at the end of experiments by IHC staining and quantified. C, Expression levels of pEGFR, pSTAT3, Bcl2 and Bcl-XL in tumor tissues from various treatment groups were analyzed by Western blot.
First, head and neck cancer xenografts were generated using Tu212 cells.

[3] = test system: HCC827/ER lung cancer xenografts; conditions: niclosamide 20 mg/kg/d
Protocol: (§1) Each group includes 8 mice. Tumor volume was measured once every 2 days. After 32 days, the mice were sacrificed and the tumors were removed and analyzed. Representative tumor pictures were taken. B, active caspase-3 was analyzed in tumor tissues at the end of experiments by IHC staining and quantified as described in Materials and Methods. C, expression levels of pEGFR, pSTAT3, Bcl2, and Bcl-XL from tumor tissues in various treatment groups were analyzed by Western blot analysis.
(§2) The control group was treated with 0.5% DMSO vehicle.

[4] = test system: STAT3 phosphorylation, Bcl2/Bcl-XL in Tu212 and Tu686 cells; test: Western blot of Tu212 and Tu686 head and neck cancer cells; format: cell-based; conditions: erlotinib plus increasing concentrations of niclosamide, 48 h
STAT3 = STAT3 (Homo sapiens, UniProt P40763); conditions: cited from earlier work
[5] = test system: HCC827 lung cancer xenografts; conditions: niclosamide 20 mg/kg/d
Protocol: as §1, §2

Chain of STAT3 (P40763 whole entry): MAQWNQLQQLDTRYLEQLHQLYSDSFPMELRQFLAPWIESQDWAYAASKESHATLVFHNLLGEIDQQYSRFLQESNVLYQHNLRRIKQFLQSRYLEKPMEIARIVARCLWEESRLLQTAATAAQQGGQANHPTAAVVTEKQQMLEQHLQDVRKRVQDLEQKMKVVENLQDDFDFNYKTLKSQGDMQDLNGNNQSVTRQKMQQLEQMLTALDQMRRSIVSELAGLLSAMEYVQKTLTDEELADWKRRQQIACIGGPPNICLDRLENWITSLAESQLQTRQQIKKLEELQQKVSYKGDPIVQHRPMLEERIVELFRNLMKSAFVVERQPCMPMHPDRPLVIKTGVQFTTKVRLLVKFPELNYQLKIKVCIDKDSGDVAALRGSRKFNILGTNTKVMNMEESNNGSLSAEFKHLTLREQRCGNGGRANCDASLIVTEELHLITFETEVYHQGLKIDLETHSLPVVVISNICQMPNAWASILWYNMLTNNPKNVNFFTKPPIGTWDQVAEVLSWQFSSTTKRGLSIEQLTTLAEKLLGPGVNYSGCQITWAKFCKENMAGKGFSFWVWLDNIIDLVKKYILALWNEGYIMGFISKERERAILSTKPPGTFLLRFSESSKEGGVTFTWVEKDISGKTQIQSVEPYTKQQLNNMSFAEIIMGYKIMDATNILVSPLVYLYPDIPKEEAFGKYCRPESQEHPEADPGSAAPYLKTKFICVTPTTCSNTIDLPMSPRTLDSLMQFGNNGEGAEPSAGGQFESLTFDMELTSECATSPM

Compound	JAK2 and c-Src phosphorylation [1]	PTPMeg2 expression [1]	STAT3/Bcl2/Bcl-XL pathway status [1]	Xenograft tumor growth, Tu212 [2]	Tumor volume, HCC827/ER xenografts ([3]; erlotinib 40 mg/kg/d, 32 days)	Erlotinib-induced STAT3 phosphorylation and Bcl2/Bcl-XL (Western blot) [4]	Activation of upstream proteins JAK2 and Src (STAT3)	STAT3 Tyr705 phosphorylation and transcriptional activity (STAT3)	Erlotinib-stimulated STAT3 phosphorylation, Bcl2 and Bcl-XL in tumor tissue lysates, Tu212 ([2]; three mice in each treatment group)	STAT3 phosphorylation, Bcl2 and Bcl-XL in tumor lysates (Western blot), HCC827 [5]	STAT3 phosphorylation, Bcl2 and Bcl-XL in tumor lysates (Western blot), HCC827/ER [3]
C#Cc1cccc(Nc2ncnc3cc(OCCOC)c(OCCOC)cc23)c1 [erlotinib, N-(3-ethynylphenyl)-6,7-bis(2-methoxyethoxy)quinazolin-4-amine]	inhibited JAK2 and c-Src phosphorylation	downregulates PTPMeg2	activation of the STAT3/Bcl2/Bcl-XL pathway	modest efficacy	tumor volumes comparable with those in the vehicle-treated control group	–	–	–	–	–	–
O=C(Nc1ccc([N+](=O)[O-])cc1Cl)c1cc(Cl)ccc1O [niclosamide]	–	–	–	modest efficacy	–	inhibited erlotinib-induced STAT3 phosphorylation and downregulated Bcl2/Bcl-XL in a dose-dependent manner	no obvious inhibitory effect	can inhibit Tyr705 site phosphorylation as well as transcriptional activity of STAT3	blocks erlotinib-stimulated STAT3 phosphorylation leading to decreased Bcl2 and Bcl-XL levels	blocks STAT3 phosphorylation in association with reduced Bcl2 and Bcl-XL	blocks STAT3 phosphorylation in association with reduced Bcl2 and Bcl-XL
